Assays:
[1] = system: HIV-1 (H9IIIB virus) replication in MT4-GFP cells; assay: Viking assay: antiviral potency in a multiple round HIV-1 infection assay; assay type: cell-based; settings: Human immunodeficiency virus 1; 10% normal human serum; MT4-GFP cells infected with H9IIIB virus; inhibition of reproductive ratio R0; read-out: Viking, IC50 (10%NHS)
Procedure: Assessing antiviral potency in a multiple round HIV-1 infection assay. HIV-1 replication was monitored using MT4-gag-GFP clone D3 (hereafter designate MT4-GFP), which are MT-4 cells modified to harbor a GFP reporter gene, the expression of which is dependent on the HIV-1 expressed proteins tat and rev. Productive infection of an MT4-GFP cell with HIV-1 results in GFP expression approximately 24 h post-infection.
MT4-GFP cells were maintained at 37° C./5% CO2/90% relative humidity in RPMI 1640 supplemented with 10% fetal bovine serum, 100 U/mL penicillin/streptomycin, and 400 μg/mL G418 to maintain the reporter gene. For infections, MT4-GFP cells were placed in the same medium lacking G418 and infected overnight with H9IIIB virus at an approximate multiplicity of infection of 0.01 in the same incubation conditions. Cells were then washed and re-suspended in either RPMI 1640 containing 10% or 50% normal human serum at 1.6×10^5 cells/mL. Compound plates were prepared by dispensing compounds dissolved in DMSO into wells of 384 well poly D lysine-coated plates (0.2 μl/well) using an ECHO acoustic dispenser. Each compound was tested in a 10 point serial 3-fold dilution (typical final concentrations: 8.4 μM-0.43 nM). Controls included no inhibitor (DMSO only) and a combination of three antiviral agents (efavirenz, indinavir, and an integrase strand transfer inhibitor at final concentrations of 4 μM each). Cells were added (50 μL/well) to compound plates and the infected cells were maintained at 37° C./5% CO2/90% relative humidity.
Infected cells were quantified at two time points, ˜48 h and ˜72 h post-infection, by counting the number of green cells in each well using an Acumen eX3 scanner. The increase in the number of green cells over ˜24 h period gives the reproductive ratio, R0, which is typically 5-15 and has been shown experimentally to be in logarithmic phase (data not shown). Inhibition of R0 is calculated for each well, and IC50s determined by non-linear 4-parameter curve fitting.

[2] = CTG assay: cytotoxicity in CellTiter-Glo Luminescent Cell Viability Assay; assay type: cell-based; settings: MT4-GFP cells, 10% normal human serum, 48 h incubation
Procedure: Assessing Cytotoxicity in CellTiter-Glo Luminescent Cell Viability Assay (CTG).
MT4-GFP cells were seeded in RPMI 1640 supplemented with 10% fetal bovine serum, 100 U/mL penicillin/streptomycin overnight at 37° C./5% CO2/90% relative humidity. Cells were then washed and resuspended in RPMI 1640 containing 10% normal human serum at a density of 0.8×10^5 cells/mL. Compound plates were prepared by dispensing compounds dissolved in DMSO into wells of 384 well solid black plates (Corning 3571) using an ECHO acoustic dispenser (0.2 μl/well). […] Controls included DMSO. Cells were added (50 μL/well) to compound plates and were maintained at 37° C./5% CO2/90% relative humidity. CTG reagent (Promega, G7573) was added to the cell plates after 48 h incubation according to the manufacturer's description. Luminescence signals were recorded on EnVision plate reader (PerkinElmer). CC50s were determined by non-linear 4-parameter curve fitting. The resulting data is shown in Table 3 with the marketed HIV nucleoside reverse transcriptase inhibitor AZT (azidothymidine, zidovudine) included as a control.

Row | Compound | IC50 [1] [nM] | CC50 at 48 h [2] [nM]
1 | Cc1cn([C@H]2C[C@H](N=[N+]=[N-])[C@@H](CO)O2)c(=O)[nH]c1=O [AZT, 3′-azido-3′-deoxythymidine, reference compound] | 37 | > 8400
2 | [2H][C@@]1(O)C[C@H](n2cc(F)c3c(N)ncnc32)O[C@]1(C#C)CO [Example 1] | 2310 | > 42000
3 | [2H][C@]1(O)C[C@H](n2cc(F)c3c(N)ncnc32)O[C@]1(C#C)CO [Example 2, (2R,3S,5R)-5-{4-amino-5-fluoro-7H-pyrrolo[2,3-d]pyrimidin-7-yl}-2-ethynyl-2-(hydroxymethyl)(3-^2H)oxolan-3-ol] | 3.1 | 31900
4 | [2H][C@]1(O)C[C@H](n2cnc3c(N)nc(F)nc32)O[C@]1(C#C)CO [Example 3, (2R,3S,5R)-5-(6-amino-2-fluoro-9H-purin-9-yl)-2-ethynyl-2-(hydroxymethyl)(3-^2H)oxolan-3-ol] | 1.2 | > 42000
5 | [2H][C@@]1(O)C[C@H](n2cnc3c(N)nc(F)nc32)O[C@]1(C#C)CO [Example 4, (2R,3R,5R)-5-(6-amino-2-fluoro-9H-purin-9-yl)-2-ethynyl-2-(hydroxymethyl)(3-^2H)oxolan-3-ol] | 1190 | > 42000
6 | [2H][C@@]1(O)C[C@H](n2ccc3c(N)nc(Cl)nc32)O[C@]1(C#C)CO [Example 5, (2R,3R,5R)-5-(4-amino-2-chloro-7H-pyrrolo[2,3-d]pyrimidin-7-yl)-2-ethynyl(3-^2H)-2-(hydroxymethyl)-tetrahydrofuran-3-ol] | > 42000 | > 42000
7 | [2H][C@]1(O)C[C@H](n2ccc3c(N)nc(Cl)nc32)O[C@]1(C#C)CO [Example 6, (2R,3S,5R)-5-(4-amino-2-chloro-7H-pyrrolo[2,3-d]pyrimidin-7-yl)-2-ethynyl(3-^2H)-2-(hydroxymethyl)-tetrahydrofuran-3-ol] | 10.6 | > 42000
8 | [2H]C(O)[C@@]1(C#C)O[C@@H](n2cnc3c(N)nc(F)nc32)C[C@@H]1O (stereo partly drawn) [Example 7, [(2R,3S,5R)-5-(6-amino-2-fluoro-9H-purin-9-yl)-3-oxhydryl-2-ethynyloxolan-2-yl](^2H)-methanol] | 0.7 | > 42000
9 | [2H]C([2H])(O)[C@@]1(C#C)O[C@@H](n2cnc3c(N)nc(F)nc32)C[C@@H]1O [Example 8, [(2R,3S,5R)-5-(6-amino-2-fluoro-9H-purin-9-yl)-3-oxhydryl-2-ethynyloxolan-2-yl](^2H2)methanol] | 1.1 | > 42000
10 | [2H]C#C[C@]1(CO)O[C@@H](n2cnc3c(N)nc(F)nc32)C[C@@H]1O [Example 9, (2R,3S,5R)-5-(6-amino-2-fluoro-9H-purin-9-yl)-2-(^2H)ethynyl-2-(hydroxymethyl)oxolan-3-ol] | 0.6 | > 42000
11 | [2H]C(O)[C@@]1(C#C)O[C@@H](n2ccc3c(N)nc(Cl)nc32)C[C@@H]1O (stereo partly drawn) [Example 10, (2R,3S,5R)-5-{4-amino-2-chloro-7H-pyrrolo[2,3-d]pyrimidin-7-yl}-2-ethynyl-2-[hydroxy(^2H)methyl]oxolan-3-ol] | 5.5 | > 42000
12 | [2H]C([2H])(O)[C@@]1(C#C)O[C@@H](n2ccc3c(N)nc(Cl)nc32)C[C@@H]1O [Example 11, (2R,3S,5R)-5-{4-amino-2-chloro-7H-pyrrolo[2,3-d]pyrimidin-7-yl}-2-ethynyl-2-[hydroxy(^2H2)methyl]oxolan-3-ol] | 5.6 | > 42000
13 | [2H]C#C[C@]1(CO)O[C@@H](n2ccc3c(N)nc(Cl)nc32)C[C@@H]1O [Example 12, (2R,3S,5R)-5-{4-amino-2-chloro-7H-pyrrolo[2,3-d]pyrimidin-7-yl}-2-(^2H)ethynyl-2-(hydroxymethyl)oxolan-3-ol] | 4.6 | > 42000
14 | [2H][C@]1(n2cnc3c(N)nc(F)nc32)C[C@H](O)[C@@](C#C)(CO)O1 [Example 13, (2R,3S,5R)-5-(6-amino-2-fluoro-9H-purin-9-yl)-2-ethynyl-2-(hydroxymethyl)tetrahydrofuran-5-^2H-3-ol] | 0.2 | > 42000
15 | [2H][C@]1(n2ccc3c(N)nc(Cl)nc32)C[C@H](O)[C@@](C#C)(CO)O1 [Example 14, (2R,3S,5R)-5-(4-amino-2-chloro-7H-pyrrolo[2,3-d]pyrimidin-7-yl)-2-ethynyl-2-(hydroxymethyl)tetrahydrofuran-5-^2H-3-ol] | 0.3 | > 42000
